From publication PMC11571012, “Synthesis and Preclinical Evaluation of a Bispecific PSMA-617/RM2 Heterodimer Targeting Prostate Cancer” (ACS Medicinal Chemistry Letters, 2024)
Like-named read-outs stand apart in the source and are kept apart here.

Experiments:
[1] = target: T1, PSMA receptor in LNCaP cells (PSMA+, GRPR-) (Homo sapiens, UniProt Q04609); assay: Cell-based competitive binding assay in LNCaP cells against [68Ga]Ga-PSMA-10; conditions: 10^5 cells/well, against [68Ga]Ga-PSMA-10 0.75 nM, analyte 0–5000 nM, 45 min, gamma counter, quadruplicate
T1 construct: Briefly, LNCaP 10 5 cells per well; host or cells: LNCaP cells
T1 sequence (Q04609 whole entry): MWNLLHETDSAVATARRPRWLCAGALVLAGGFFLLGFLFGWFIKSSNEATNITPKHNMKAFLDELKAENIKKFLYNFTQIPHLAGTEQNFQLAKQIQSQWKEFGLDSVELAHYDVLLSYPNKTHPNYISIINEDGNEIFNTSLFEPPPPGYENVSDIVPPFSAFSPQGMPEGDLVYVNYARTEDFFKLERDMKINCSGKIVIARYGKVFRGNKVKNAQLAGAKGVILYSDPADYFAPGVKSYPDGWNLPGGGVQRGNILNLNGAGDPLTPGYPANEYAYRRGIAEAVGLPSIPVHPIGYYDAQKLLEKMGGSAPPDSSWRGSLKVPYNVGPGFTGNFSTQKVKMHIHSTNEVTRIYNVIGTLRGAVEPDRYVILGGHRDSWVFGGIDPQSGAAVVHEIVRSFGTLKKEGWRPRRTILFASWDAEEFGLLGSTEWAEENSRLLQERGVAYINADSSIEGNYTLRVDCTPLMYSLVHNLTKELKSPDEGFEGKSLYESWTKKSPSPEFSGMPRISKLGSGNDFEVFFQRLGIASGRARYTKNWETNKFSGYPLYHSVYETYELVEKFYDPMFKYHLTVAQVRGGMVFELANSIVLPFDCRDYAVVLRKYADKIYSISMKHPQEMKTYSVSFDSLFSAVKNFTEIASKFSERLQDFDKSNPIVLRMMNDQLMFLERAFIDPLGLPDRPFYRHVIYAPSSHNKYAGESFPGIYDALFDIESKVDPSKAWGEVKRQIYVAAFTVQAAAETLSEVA
Protocol: Each value was measured in quadruplicate.
Cell Culture & cell assays
In vitro and in vivo experiments were performed with the following cell lines: the GRPR positive PC -3 cells
supplemented with 10% fetal calf serum and 2 mM L -glutamine (Invitrogen, Carlsbad, CA, USA). Cells
were grown at 37 °C in humidified air with 5% CO 2. Trypsin-ethylenediaminetetraacetic acid (trypsin -
EDTA; 0.25% tryps in, 0.02% EDTA, Invitrogen) was used for cell harvesting.
Determination of Binding Affinity in LNCaP and PC -3 cells
3-5 Briefly, LNCaP 10 5 cells per well
PSMA-10, precursor purchased from ABX, Radeberg , Germany) and an ascending series of 12 different
45 min). This mixture was removed after incubation and the wells were washed on a multiscreen vacuum
manifold (Millipore, Billerica, MA) three times with PBS. The following detection of cell-bound
radioactivity was measured using a gamma counter (Packard Cobra II, GMI, Minnesota, USA).
fitted with a nonlinear regression algorithm (GraphPad Software) to determine the 50% inhibitory
concentration (IC50) values.
min. After incubation the mixture was removed, the wells were washed with PBS and the cell -bound
radioactivity was measured using a gamma counter (Hidex AMG - Automated Gamma Counter).

PSMA (LNCaP, PC-3 PIP) = conditions: read-out: Ki, LNCaP (literature), LNCaP cells, literature data, ref 2 (SI); cited from earlier work
Protocol: This mixture was removed after incubation and the wells were washed on a multiscreen vacuum manifold (Millipore, Billerica, MA) three times with PBS. The following detection of cell-bound radioactivity was measured using a gamma counter (Packard Cobra II, GMI, Minnesota, USA).

[2] = Radio RP-HPLC analysis (elution order); conditions: radiolabeled ligands; Chromolith RP-18e, 0−100% AcCN (0.1% TFA) in 6 min, 4 mL/min; said to agree with logD
PC-3 tumors = conditions: in vivo; cited from earlier work
[3] = target: T1, PSMA receptor in LNCaP cells (PSMA+, GRPR-); conditions: standard used at C = 0.75 nM; no reference given; read-out: IC50 of standard radioligand (PSMA); cited from earlier work

For `O=C(O)CC[C@H](NC(=O)N[C@@H](CCCCNC(=O)[C@H](Cc1ccc2ccccc2c1)NC(=O)[C@H]1CC[C@H](CNC(=O)CN2CCN(CC(=O)O)CCN(CC(=O)O)CCN(CC(=O)O)CC2)CC1)C(=O)O)C(=O)O` [PSMA-617 (1), vipivotide tetraxetan], the IC50 [1] is listed as 6.41 nM, the Ki (PSMA (LNCaP, PC-3 PIP)) is listed as 2.34 nM and the “Elution order in radio RP-HPLC” value [2] is listed as “eluted first”.
For `CC(C)C[C@H](NC(=O)C[C@H](O)[C@H](CC(C)C)NC(=O)[C@H](Cc1c[nH]cn1)NC(=O)CNC(=O)[C@@H](NC(=O)[C@H](C)NC(=O)[C@H](Cc1c[nH]c2ccccc12)NC(=O)[C@H](CCC(N)=O)NC(=O)[C@@H](Cc1ccccc1)NC(=O)CN1CCC(NC(=O)CN2CCN(CC(=O)O)CCN(CC(=O)O)CCN(CC(=O)O)CC2)CC1)C(C)C)C(N)=O` [[68Ga]Ga-RM2] [metal not drawn], the Kidneys uptake (PC-3 tumors) is listed as 3.34 ± 0.54 % ID/g.
For “[Glu-urea-Lys(Ahx)]2-HBED-CC [[^68Ga]Ga-PSMA-10]”, the IC50 [3] is listed as 3.8 ± 1.8 nM.
